Reference: publication PMC4000071 (Journal of Toxicologic Pathology, 2014)
Like-named read-outs stand apart in the source and are kept apart here.

Tests used:
dogs = conditions: cited from earlier work
phospholipidosis (PLD) = test: in vitro PLD screen; type: cell-based; conditions: read-out: EC50 (phospholipogenic, in vitro)
rats = conditions: cited from earlier work

## CCCCc1oc2ccccc2c1C(=O)c1cc(I)c(OCCN(CC)CC)c(I)c1 [amiodarone]
dogs; after 6 weeks
  corneal microdeposits (incidence): 1 of 6
dogs; after 11 weeks of dosing
  alteration in the retina or optic nerve: did not cause any alteration in the retina or optic nerve

## CCN(CC)CCCC(C)Nc1ccnc2cc(Cl)ccc12 (stereo not drawn) [chloroquine]
Phospholipidosis (PLD)
  EC50: < 20 µM

## CN(C)CCCC1(c2ccc(F)cc2)OCc2cc(C#N)ccc21 (stereo not drawn) [citalopram]
dogs
  PLD: did not cause PLD
rats
  PLD in nervous tissues: caused PLD in 1 sympathetic ganglion, none or very weak PLD in retinal and trigeminal ganglia, and hypothalamic neurosecretory perikarya

## CNCCC(Oc1ccc(C(F)(F)F)cc1)c1ccccc1 (stereo not drawn) [fluoxetine]
dogs; after 1 year of dosing
  neuronal degeneration or neurological findings: no neuronal degeneration or neurological findings were observed
rats
  PLD in nervous tissues: caused PLD in retinas
  PLD-like vacuolation in nerve cells: PLD-like vacuolation in nerve cells in the thalamus, cerebellum, spinal cord and ganglion

## CN(C)CCCN1c2ccccc2CCc2ccccc21 [imipramine]
rats
  PLD in nervous tissues: caused PLD in retina and DRG

## C1CCC(C(CC2CCCCN2)C2CCCCC2)CC1 (stereo not drawn) [perhexiline]
Phospholipidosis (PLD)
  EC50: < 20 µM

## CC[C@@H]([C@H](C)O)n1ncn(-c2ccc(N3CCN(c4ccc(OC[C@@H]5CO[C@@](Cn6cncn6)(c6ccc(F)cc6F)C5)cc4)CC3)cc2)c1=O [posaconazole]
dogs; chronic administration
  PLD: caused PLD in DRG and medulla oblongata neurons in the brain
  neuronal degeneration or necrosis: no evidence of neuronal degeneration or necrosis
